Columns and labels:
hypertrophic scar = experiment: Rabbit ear hypertrophic scar model, scar elevation index (SEI) by histomorphometry; format: in vivo, New Zealand White rabbits
[1] = Solubility of statins in the topical vehicle / microemulsion system; format: physicochemical
From the text: Transdermal penetration is the critical limitation in topical application. […] The stratum corneum is hydrophobic and a barrier for any topically applied reagent, and so hydrophobic statins should have increased penetration^18. […] Dosing schedules were chosen based upon in vitro dosing necessary to interfere with CTGF expression^11-13,22,23, and extrapolated to animal models based upon our experience with dose response curves for growth factors in our rabbit ear model^24.

CTGF mRNA = experiment: Quantification of CTGF mRNA expression in dermal scar tissue (qPCR); format: in vivo, New Zealand White rabbits; conditions: high-dose (10%) simvastatin topical, mean±SEM, p<0.01
Protocol: (§1) Total RNA was extracted from dermal scar tissue of high-dose simvastatin topical treatment and control scars using TRI reagent (Sigma-Aldrich, St. Louis, MO), and contaminated DNA was removed with Turbo DNA-free kit (Ambion, Austin, TX). The cDNA was synthesized from one μg of total RNA by superscript II reverse transcriptase (Invitrogen, Grand Island, NY) with 100 ng of random primers in 20 μl of volume. Synthesized cDNA was quantified in a sequence detection system (ABI StepOnePlus; Applied Biosystems, Foster City, CA) using SYBR green and specific primers of CTGF and collagen 1A1, and 18 S rRNA was set as endogenous control. The sequence of primers is as followed: CTGF (5′-CTTCTGTCGGCTGGAGAAAC-3′ (SEQ ID NO:1) & 5′-TTAGCCCGGTACGTCTTCAC-3′ (SEQ ID NO:2)); Collagen 1A1: (5′-TAAGAGCTCCAAGGCCAAGA-3′(SEQ ID NO:3) & 5′-TGTTCTGAGAGGCGTGATTG-3′ (SEQ ID NO:4)); Glyceraldehyde 3-phosphate dehydrogenase (5′-AGGTCATCCACGACCACTTC-3′ (SEQ ID NO:5) & 5′-GTGAGTTTCCCGTTCAGCTC-3′ (SEQ ID NO:6)).
(§2) For statistical analysis of histological and molecular analysis results, Student's paired t test was applied to see if there is a difference between treatment and control group, p<0.05 was used as significant. All values were represented as mean±standard error.

Collagen 1A1 mRNA = experiment: Quantification of Collagen 1A1 mRNA expression in dermal scar tissue (qPCR); format: in vivo, New Zealand White rabbits; conditions: high-dose (10%) simvastatin topical, mean±SEM, p<0.01
Protocol: as §1, §2

With `CC(C)CCC[C@@H](C)[C@H]1CC[C@H]2[C@@H]3CC=C4C[C@@H](O)CC[C@]4(C)[C@H]3CC[C@]12C` [cholesterol] the “Effect of cholesterol on reducing scarring” value (hypertrophic scar; topical cholesterol in vehicle) was “mild, not statistically effect”.
For `CC[C@H](C)C(=O)O[C@H]1C[C@@H](C)C=C2C=C[C@H](C)[C@H](CC[C@@H]3C[C@@H](O)CC(=O)O3)[C@H]21` [lovastatin], the “Solubility in the vehicle tested” value [1] was “limited solubility”.
With `CC[C@H](C)C(=O)O[C@H]1C[C@H](O)C=C2C=C[C@H](C)[C@H](CC[C@@H](O)C[C@@H](O)CC(=O)O)[C@H]21` [pravastatin] the “Scar elevation index (SEI)” value (hypertrophic scar; intradermal 100 μl 10 μM pravastatin in PBS per wound at POD 15, 18, 21, harvest POD 28, mean±standard error, saline control 1.71±0.08, p=0.0009) was 1.55±0.07.
With `CCC(C)(C)C(=O)O[C@H]1C[C@@H](C)C=C2C=C[C@H](C)[C@H](CC[C@@H]3C[C@@H](O)CC(=O)O3)[C@H]21` [simvastatin] the “mRNA expression of CTGF compared to vehicle control” value (CTGF mRNA) was 53.8±8.0% and the “mRNA expression of Collagen 1A1 compared to vehicle control” value (Collagen 1A1 mRNA) was 48.5±14%.

From US12447160B2, “Topical treatment of wounds with statins and cholesterol for scar reduction” (Northwestern University, priority 2017, dated 2025)
